Test results taken from patent US20160102103A1, “SUBSTITUTED PYRIDINE COMPOUNDS HAVING HERBICIDAL ACTIVITY” (BASF SE, priority 2013, published 2016).

What was measured:
Type in all cases: in vivo
Abutilon theophrasti = experiment: greenhouse post-emergence herbicidal test, ABUTH; settings: scale from 0 to 100
Excerpt: (§1) The seeds of the test plants were sown separately for each species. For the post-emergence treatment, the test plants were first grown to a height of 3 to 15 cm, depending on the plant habit, and only then treated with the active ingredients which had been suspended or emulsified in water. For this purpose, the test plants were either sown directly and grown in the same containers, or they were first grown separately as seedlings and transplanted into the test containers a few days prior to treatment. Depending on the species, the plants were kept at 10-25° C. or 20-35° C., respectively. The test period extended over 2 to 4 weeks. During this time, the plants were tended, and their response to the individual treatments was evaluated. Evaluation was carried out using a scale from 0 to 100. 100 means no emergence of the plants, or complete destruction of at least the aerial moieties, and 0 means no damage, or normal course of growth. A good herbicidal activity is given at values of at least 70 and a very good herbicidal activity is given at values of at least 85. The plants used in the greenhouse experiments were of the following species: [table]

Capsella bursa-pastoris = experiment: greenhouse post-emergence herbicidal test, CAPBP; settings: application rate 0.25 kg/ha, scale from 0 to 100
Excerpt: as §1

Echinocloa crus-galli = experiment: greenhouse post-emergence herbicidal test, ECHCG; settings: scale from 0 to 100
Excerpt: as §1

Setaria viridis = experiment: greenhouse post-emergence herbicidal test, SETVI; settings: scale from 0 to 100
Excerpt: as §1

Thlaspi arvense = experiment: greenhouse post-emergence herbicidal test, THLAR; settings: application rate 0.25 kg/ha, scale from 0 to 100
Excerpt: as §1

Amaranthus retroflexus = experiment: greenhouse post-emergence herbicidal test, AMARE; settings: application rate 0.271 kg/ha, scale from 0 to 100
Excerpt: as §1

Setaria faberi = experiment: greenhouse post-emergence herbicidal test, SETFA; settings: application rate 0.125 kg/ha, scale from 0 to 100
Excerpt: as §1

Polygonum convolvulus = experiment: greenhouse post-emergence herbicidal test, POLCO; settings: application rate 0.125 kg/ha, scale from 0 to 100
Excerpt: as §1

O=S1(=O)Cc2cccnc2C(O)=C1c1c(Cl)cncc1Cl [Compound I-1]
herbicidal activity against ABUTH (Abutilon theophrasti; application rate 0.25 kg/ha): very good herbicidal activity (a very good herbicidal activity is given at values of at least 85)

CC1c2cccnc2C(OC(=O)C(C)(C)C)=C(c2c(Cl)cnc(Cl)c2Cl)S1(=O)=O (stereo not shown) [Compound I-7]
herbicidal activity against CAPBP (Capsella bursa-pastoris): very good herbicidal activity (a very good herbicidal activity is given at values of at least 85)

CC(C)(C)C(=O)OC1=C(c2c(Cl)cnc(Cl)c2Cl)S(=O)(=O)C2(CC2)c2cccnc21 [Compound I-11]
herbicidal activity against ECHCG (Echinocloa crus-galli; application rate 0.50 kg/ha): very good herbicidal activity (a very good herbicidal activity is given at values of at least 85)
herbicidal activity against SETVI (Setaria viridis; application rate 0.50 kg/ha): very good herbicidal activity (a very good herbicidal activity is given at values of at least 85)
herbicidal activity against ABUTH (Abutilon theophrasti; application rate 0.50 kg/ha): very good herbicidal activity (a very good herbicidal activity is given at values of at least 85)

O=S1(=O)C(c2c(Cl)cnc(Cl)c2Cl)=C(O)c2ncccc2C12CC2 [Compound I-12]
herbicidal activity against THLAR (Thlaspi arvense): very good herbicidal activity (a very good herbicidal activity is given at values of at least 85)

COc1c(Cl)ncc(Cl)c1C1=C(OC(=O)C(C)(C)C)c2ncccc2CS1(=O)=O [Compound I-13]
herbicidal activity against SETVI (Setaria viridis; application rate 0.25 kg/ha): good herbicidal activity (A good herbicidal activity is given at values of at least 70)

COc1c(Cl)ncc(Cl)c1C1=C(O)c2ncccc2C(C)(C)S1(=O)=O [Compound I-16]
herbicidal activity against ABUTH (Abutilon theophrasti; application rate 0.125 kg/ha): very good herbicidal activity (a very good herbicidal activity is given at values of at least 85)

COc1c(Cl)ncc(Cl)c1C1=C(OC(=O)C(C)(C)C)c2ncccc2C2(CC2)S1(=O)=O [Compound I-19]
herbicidal activity against SETVI (Setaria viridis; application rate 0.271 kg/ha): very good herbicidal activity (a very good herbicidal activity is given at values of at least 85)
herbicidal activity against ABUTH (Abutilon theophrasti; application rate 0.271 kg/ha): very good herbicidal activity (a very good herbicidal activity is given at values of at least 85)
herbicidal activity against AMARE (Amaranthus retroflexus): very good herbicidal activity (a very good herbicidal activity is given at values of at least 85)

O=S1(=O)Cc2cccnc2C(O)=C1c1c(F)cnc(Cl)c1Br [Compound I-27]
herbicidal activity against ECHCG (Echinocloa crus-galli; application rate 0.25 kg/ha): very good herbicidal activity (a very good herbicidal activity is given at values of at least 85)

CC1(C)c2cccnc2C(O)=C(c2c(F)cnc(Cl)c2Br)S1(=O)=O [Compound I-28]
herbicidal activity against SETFA (Setaria faberi): very good herbicidal activity (a very good herbicidal activity is given at values of at least 85)

Cc1c(Cl)ncc(F)c1C1=C(O)c2ncccc2CS1(=O)=O [Compound I-36]
herbicidal activity against ECHCG (Echinocloa crus-galli; application rate 1.0 kg/ha): good herbicidal activity (A good herbicidal activity is given at values of at least 70)

CC1(C)c2cccnc2C(O)=C(c2c(Cl)cnc(Cl)c2F)S1(=O)=O [Compound I-39]
herbicidal activity against POLCO (Polygonum convolvulus): good herbicidal activity (A good herbicidal activity is given at values of at least 70)

O=S1(=O)Cc2cccnc2C(O)=C1c1c(Br)cnc(Cl)c1F [Compound I-40]
herbicidal activity against ECHCG (Echinocloa crus-galli; application rate 0.125 kg/ha): good herbicidal activity (A good herbicidal activity is given at values of at least 70)
